We go through eleven compounds from PubChem BioAssay (NCI).

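Assay format: 96-well plates, 48-hour exposure. GI50 marks 50% less growth. TGI marks complete inhibition of growth.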

Some test systems named below: BT-549 breast; DU-145 prostate; HCT-15 colon; HL-60(TB) leukemia; HT29 colon; MDA-MB-435; U251 CNS.
Experiment in all cases: growth of human tumour cells (NCI), 48 h

Take `COc1ccc(OC)c(-c2nc3sc(C)cn3c2/C=C2\C(=O)N(C)c3ccccc32)c1`: the GI50 with BT-549 breast is 26.2 µM; in the experiment with DU-145 prostate, 29.2 µM; in the experiment with HCT-15 colon it was 19.8 µM; in the experiment on HL-60(TB) leukemia it was 11.5 µM; in the experiment with HT29 colon, 21.9 µM; in the experiment with MDA-MB-435, 4.04 µM. For the same compound, in the experiment with U251 CNS, the GI50 is 22.2 µM. Moreover, the TGI turned out to be 81.6 µM in the experiment on BT-549 breast; 81.8 µM in the experiment with DU-145 prostate; 81.6 µM in the experiment on HCT-15 colon; 31.6 µM in the experiment with HL-60(TB) leukemia; 70 µM in the experiment on HT29 colon; 18.6 µM in the experiment with MDA-MB-435. The compound also had a TGI in the experiment with U251 CNS of 59.5 µM.

For `COc1ccc(C#CC2=C(Br)C(=O)OC2)cc1`, the GI50 in the experiment on BT-549 breast is 8.32 µM; with DU-145 prostate it was 5.44 µM; in the experiment with HCT-15 colon it was 2.63 µM; in the experiment with HL-60(TB) leukemia it was 5.32 µM; in the experiment with HT29 colon, 2.42 µM; in the experiment on MDA-MB-435, 9.94 µM. Besides, in the experiment with U251 CNS, the GI50 is 1.75 µM. Besides, the TGI was 18.3 µM in the experiment on BT-549 breast; 11.4 µM with DU-145 prostate; 11.3 µM in the experiment with HCT-15 colon; above 50 µM with HL-60(TB) leukemia; 10.5 µM with HT29 colon; 27.3 µM in the experiment on MDA-MB-435. The TGI in the experiment on U251 CNS was 6.48 µM.

For the compound `CN1CCC(n2cnc(-c3ccc(F)cc3)c2-c2ccnc(Nc3ccccc3)n2)CC1`, the GI50 is 10.4 µM in the experiment with BT-549 breast; 10.4 µM with DU-145 prostate; 6.22 µM with HCT-15 colon; 9.65 µM with HL-60(TB) leukemia; 3.95 µM in the experiment with HT29 colon; 3.64 µM with MDA-MB-435. Further, the GI50 in the experiment on U251 CNS is 6.7 µM. In addition, the TGI in the experiment with BT-549 breast was above 25 µM; with DU-145 prostate, above 25 µM; with HCT-15 colon it was above 25 µM; in the experiment on HL-60(TB) leukemia, above 23.2 µM; in the experiment on HT29 colon, above 25 µM; in the experiment on MDA-MB-435, 11.9 µM. The compound also returned a TGI in the experiment with U251 CNS above 25 µM.

With `Cc1ccc(Nn2c(SCC(=O)Nc3nc(-c4ccccc4)cs3)nc(C)c2C)cc1`, the GI50 with BT-549 breast was 3.18 µM; with DU-145 prostate it was 9.75 µM; in the experiment on HCT-15 colon it was 5.17 µM; in the experiment with HL-60(TB) leukemia, 4.64 µM; in the experiment with HT29 colon it was 4.37 µM; with MDA-MB-435 it was 2.66 µM. Moreover, the GI50 with U251 CNS was 4.5 µM. In addition, the TGI with BT-549 breast is 14.1 µM; in the experiment with DU-145 prostate, 64.6 µM; in the experiment with HCT-15 colon, above 100 µM; with HL-60(TB) leukemia, 39.1 µM; in the experiment with HT29 colon it was 28.2 µM; with MDA-MB-435, 9.54 µM. This compound yielded a TGI in the experiment on U251 CNS above 100 µM.

On to `COc1cc2c3c(n(CCCN=[N+]=[N-])c(=O)c2cc1OC)-c1ccc(NC(C)=O)cc1C3=O`, for which the GI50 in the experiment with BT-549 breast is above 50 µM; in the experiment on DU-145 prostate, above 50 µM; with HCT-15 colon it was above 50 µM; in the experiment with HL-60(TB) leukemia, 15 µM; in the experiment on HT29 colon it was above 50 µM; in the experiment with MDA-MB-435, above 50 µM. In addition, the GI50 in the experiment with U251 CNS was above 50 µM. Further, the TGI in the experiment with BT-549 breast, in the experiment on DU-145 prostate, with HCT-15 colon, in the experiment with HL-60(TB) leukemia, in the experiment on HT29 colon and with MDA-MB-435 was above 50 µM throughout. The same compound had a TGI with U251 CNS above 50 µM.

Turning to `COc1ccc(-c2cncn2-c2ccc(-c3nc4cc(OC)c(OC)c(OC)c4s3)cc2)cc1N`, the GI50 is 6.21 µM in the experiment with BT-549 breast; 6.38 µM in the experiment with DU-145 prostate; 4.02 µM with HCT-15 colon; 2.2 µM in the experiment on HL-60(TB) leukemia; 3.87 µM in the experiment on HT29 colon; 3.13 µM in the experiment on MDA-MB-435. The GI50 with U251 CNS is 6 µM. Further, the TGI in the experiment with BT-549 breast is above 100 µM; with DU-145 prostate, above 100 µM; with HCT-15 colon, above 100 µM; in the experiment with HL-60(TB) leukemia it was 9.55 µM; in the experiment with HT29 colon it was above 100 µM; in the experiment on MDA-MB-435, above 100 µM. For the same compound, the TGI in the experiment on U251 CNS was above 100 µM.

As for `CN1CCN(c2ccc(NC(=O)c3cncnc3Nc3ccc4c(ccn4Cc4cccc(F)c4)c3)cc2)CC1`, the GI50 is 5.23 µM in the experiment on BT-549 breast; 3.82 µM in the experiment with DU-145 prostate; 0.943 µM in the experiment on HCT-15 colon; 0.673 µM in the experiment with HL-60(TB) leukemia; 0.922 µM in the experiment on HT29 colon; 0.625 µM with MDA-MB-435. For the same compound, in the experiment with U251 CNS, the GI50 is 1.3 µM. In addition, the TGI in the experiment on BT-549 breast was found to be 9.78 µM; in the experiment on DU-145 prostate, 7.87 µM; in the experiment on HCT-15 colon, 4 µM; in the experiment on HL-60(TB) leukemia, 1.4 µM; with HT29 colon it was 2.9 µM; in the experiment with MDA-MB-435 it was 1.2 µM. Moreover, the TGI in the experiment with U251 CNS was determined as 4.92 µM.

Turning to `CCOc1cc(CCNC)c2c(ccc3ccc(OC)c(O)c32)c1OC`, the TGI with BT-549 breast was 30.1 µM; in the experiment on DU-145 prostate it was 28.5 µM; with HCT-15 colon, 35.7 µM; in the experiment on HL-60(TB) leukemia it was above 100 µM; in the experiment on HT29 colon, 30.7 µM; in the experiment with MDA-MB-435 it was 27.5 µM. The compound further had a TGI in the experiment on U251 CNS of 32.2 µM.

As to `CCN(CC)CCC(CNc1c(C)cnc2cc(Cl)ccc12)c1ccc(Cl)c(Cl)c1` (stereo not given), the GI50 was 8.2 µM in the experiment on BT-549 breast; 9.2 µM in the experiment with DU-145 prostate; 2.23 µM in the experiment on HCT-15 colon; 2.13 µM with HL-60(TB) leukemia; 1.14 µM with HT29 colon; 1.77 µM with MDA-MB-435. Further, the GI50 in the experiment with U251 CNS was 2.27 µM. Besides, the TGI in the experiment with BT-549 breast came out at 21.3 µM; in the experiment on DU-145 prostate, 22 µM; with HCT-15 colon, 10.8 µM; with HL-60(TB) leukemia, 5.12 µM; with HT29 colon, 10.1 µM; with MDA-MB-435, 3.4 µM. In addition, the TGI in the experiment on U251 CNS turned out to be 5.43 µM.

Take `CCN1C(=O)N[C@H]2[C@@H]3NC(=O)c4ccc(Cl)n4[C@@H]3C[C@]21O`: the GI50 in the experiment on BT-549 breast is 0.41 µM; with DU-145 prostate it was 0.615 µM; in the experiment with HCT-15 colon it was 1.66 µM; in the experiment with HL-60(TB) leukemia it was 0.242 µM; in the experiment with HT29 colon it was 0.968 µM; in the experiment on MDA-MB-435 it was 1.05 µM. Besides, the GI50 in the experiment on U251 CNS is 0.329 µM. Further, the TGI with BT-549 breast came out at 4.29 µM; with DU-145 prostate it was 19.3 µM; in the experiment with HCT-15 colon it was 15.6 µM; with HL-60(TB) leukemia, 0.634 µM; with HT29 colon it was 10.4 µM; in the experiment with MDA-MB-435, 11.1 µM. This compound also showed a TGI in the experiment with U251 CNS of 13.5 µM.

With `COc1ccc2c3c1OC1C4(CCC5C(C2)N(CC2CC2)CCC351)OCCO4` (stereo not given), the TGI in the experiment on BT-549 breast, with DU-145 prostate, in the experiment with HCT-15 colon, in the experiment with HL-60(TB) leukemia, with HT29 colon and in the experiment on MDA-MB-435 was above 100 µM throughout. This compound also came in with a TGI with U251 CNS above 100 µM.
